Results from patent publication US20250018049A1, “COMPOUNDS FOR DEGRADING CYCLIN-DEPENDENT KINASE 2 VIA UBIQUITIN PROTEOSOME PATHWAY” (NIKANG THERAPEUTICS, INC., priority 2020, published 2025).

What was measured:
Format in all cases: cell-based
CDK2 [1] = target: T1, CDK2 (Homo sapiens, UniProt P24941); assay: NanoBRET CDK2 engagement assay; design: expressed in transfected cells; conditions: OVCAR3 cells with stable CDK2-Luciferase vector, 24 hours treatment
Procedure, shortened: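 OVCAR3 cells stably expressing CDK2-luciferase, in Opti-MEM with 1% FBS, treated 24 h at 37° C with compound from 3 μM in ½-log steps to 0.3 nM; NanoBRET tracer present for final 2 h. Donor/acceptor emission read; engagement normalized to DMSO as 100% signal, IC50 by curve fit.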

CDK2 [2] = target: T1, CDK2; assay: Phospho-Rb HTRF measurement in OVCAR3 cells (inhibition of CDK2); design: High-Throughput Measurement of Cellular Endogenous CDK2; endogenous in cells; host or cells: OVCAR3; conditions: pRB(S807/811) assay, 24 h compound treatment
CDK2 [3] = target: T1, CDK2; assay: CDK2 HTRF assay (cellular endogenous CDK2 level); design: High-Throughput Measurement of Cellular Endogenous CDK2; endogenous in cells; host or cells: OVCAR3; conditions: OVCAR-3; OVCAR3 cells, 24 hours, 0.3 to 10,000 nM; read-out: max degradation of CDK2
Experimental: Effects of compounds on cellular CDK2 level can be monitored by a high-throughput HTRF assay or traditional Western Blot assay.
To determine half maximal degradation concentration (DC50) values of compounds, cellular CDK2 level was measured in 96-well format using HTRF total CDK2 cellular kit (Cat #64CDK2TPEG) from Cisbio.
On Day 1, OVCAR3 cells were seeded into 96-well tissue-culture treated plates at 20,000 cells/well in 200 μL and incubated overnight at 37° C. in CO2 atmosphere. On Day 2 cells were treated with compounds at concentration ranging from 0.3 to 10,000 nM using HP D300 digital dispenser. 24 hours after compound treatment, cell culture media was removed by flicking the plate and tapping the plate against clean paper towel. Immediately 30 μL 1× lysis buffer was supplemented from the kit and the plate was incubated at room temperature on shaker for 30 min. After homogenization by pipetting up and down, 8 μL cell lysate from 96-well cell culture plate was transferred to 384-well small volume white detection plate. 2 μL premixed detection solution was added and the plate was covered with sealer. To prepare the detection solution, d2 conjugated-CDK2 antibody and Eu-cryptate conjugated CDK2 antibody were diluted into detection buffer following manufacturer's instruction. Detection plates were incubated overnight at room temperature and read on ClarioStar (BMG Labtech) in TR-FRET mode (665 nM and 620 nM). The TR-FRET ratio (665 nM/620 nM) was plotted against the compound concentration and normalized to DMSO controls. Half maximal degradation concentration (DC50) values were calculated with a four-parameter logistic fit using GraphPad Prism (version 8; La Jolla, CA). FIG. 1 provides a dose-response curve of Compound 1 in Compound Table I in cellular CDK2 HTRF assay. IC50 in FIG. 1 is the same as DC50. Compounds 1, 13, 16, 22, 23, 28, 34, 35, 36, 37, 38, 39, 42, 48, 50, 51, 53, 54, 55, 56, 57, 58, 59, 60, 61, 62, 63, 65, 66, 68, 69, 70 were tested and max degradation of CDK2 observed was from about 35% to about 90%.

Row | IC50 (CDK2 [1]) [nM] | IC50 (CDK2 [2]) [nM] | Dmax (CDK2 [3]) [%] | SMILES
1 | 722 | 131 | 35 to 90 | O=C1CCC(N2C(=O)c3cc(F)c(N4CCN(Cc5cccc(S(=O)(=O)N6CCC(Nc7ncc8ccc(=O)n(C9CCCC9)c8n7)CC6)c5)CC4)cc3C2=O)C(=O)N1 (stereo not drawn) [Compound 48, 5-(4-(3-((4-((8-cyclopentyl-7-oxo-7,8-dihydro-pyrido[2,3-d]pyrimidin-2-yl)amino)piperidin-1-yl)sulfonyl)-benzyl)piperazin-1-yl)-2-(2,6-dioxo-piperidin-3-yl)-6-fluoroisoindoline-1,3-dione]
2 | 42.3 | 11.1 | 35 to 90 | O=C1CCC(N2Cc3cc(N4CCC(CN5CCN(c6cccc(S(=O)(=O)N7CCC(Nc8ncc9ccc(=O)n(C%10CCCC%10)c9n8)CC7)c6)CC5)CC4)ccc3C2=O)C(=O)N1 (stereo not drawn) [Compound 38, 3-(5-(4-((4-(3-((4-((8-cyclopentyl-7-oxo-7,8-dihydropyrido[2,3-d]pyrimidin-2-yl)amino)-piperidin-1-yl)sulfonyl)phenyl)piperazin-1-yl)-methyl)piperidin-1-yl)-1-oxoisoindolin-2-yl)-piperidine-2,6-dione]
3 | 903 | 798 | 35 to 90 | CN(CCN(C)S(=O)(=O)N1CCC(Nc2ncc3ccc(=O)n(C4CCCC4)c3n2)CC1)Cc1ccc(N(C)c2cccc3c2C(=O)N(C2CCC(=O)NC2=O)C3=O)cc1 (stereo not drawn) [Compound 22, 4-((8-cyclopentyl-7-oxo-7,8-dihydropyrido[2,3-d]-pyrimidin-2-yl)amino)-N-(2-((4-((2-(2,6-dioxopiperidin-3-yl)-1,3-dioxoisoindolin-4-yl)(methyl)amino)benzyl)(methyl)amino)ethyl)-N-methylpiperidine-1-sulfonamide]
4 | 94 | 490 | 35 to 90 | Cn1c(=O)n(C2CCC(=O)NC2=O)c2cccc(C3CCN(C4CCN(c5cccc(S(=O)(=O)N6CCC(Nc7ncc8ccc(=O)n(C9CCCC9)c8n7)CC6)c5)CC4)CC3)c21 (stereo not drawn) [Compound 39, 3-(4-(1′-(3-((4-((8-cyclopentyl-7-oxo-7,8-dihydro-pyrido[2,3-d]pyrimidin-2-yl)amino)piperidin-1-yl)sulfonyl)phenyl)-[1,4′-bipiperidin]-4-yl)-3-methyl-2-oxo-2,3-dihydro-1H-benzo[d]imidazol-1-yl)piperidine-2,6-dione]
5 | 197 | 29.4 | 35 to 90 | O=C1CCC(N2Cc3cc(CNCCOc4cccc(S(=O)(=O)N5CCC(Nc6ncc7ccc(=O)n(C8CCCC8)c7n6)CC5)c4)ccc3C2=O)C(=O)N1 (stereo not drawn) [Compound 68, 3-(5-(((2-(3-((4-((8-cyclopentyl-7-oxo-7,8-dihydropyrido[2,3-d]pyrimidin-2-yl)amino)-piperidin-1-yl)sulfonyl)phenoxy)ethyl)amino)-methyl)-1-oxoisoindolin-2-yl)piperidine-2,6-dione]
6 | 327 | 70.7 | 35 to 90 | O=C1CCC(N2Cc3cc(N4CC5(CN(Cc6cccc(S(=O)(=O)N7CCC(Nc8ncc9ccc(=O)n(C%10CC%11CC%11C%10)c9n8)CC7)c6)C5)C4)ccc3C2=O)C(=O)N1 (stereo not drawn) [Compound 61, 3-(5-(6-(3-((4-((8-(bicyclo[3.1.0]hexan-3-yl)-7-oxo-7,8-dihydropyrido[2,3-d]pyrimidin-2-yl)amino)piperidin-1-yl)sulfonyl)benzyl)-2,6-diazaspiro[3.3]heptan-2-yl)-1-oxoisoindolin-2-yl)piperidine-2,6-dione]
7 | 284 | 21.8 | 35 to 90 | O=C1CCC(N2Cc3cc(N4CC5(CN(Cc6cccc(S(=O)(=O)N7CCC(Nc8ncc9ccc(=O)n(C%10%11CC(C%10)C%11)c9n8)CC7)c6)C5)C4)ccc3C2=O)C(=O)N1 (stereo not drawn) [Compound 62, 3-(5-(6-(3-((4-((8-(bicyclo[1.1.1]pentan-1-yl)-7-oxo-7,8-dihydropyrido[2,3-d]pyrimidin-2-yl)-amino)piperidin-1-yl)sulfonyl)benzyl)-2,6-diazaspiro[3.3]heptan-2-yl)-1-oxoisoindolin-2-yl)-piperidine-2,6-dione]
8 | 212 | 25.7 | 35 to 90 | O=C1CCC(N2Cc3cc(N4CCN(CC5CCN(c6cccc(S(=O)(=O)N7CCC(Nc8ncc9ccc(=O)n(C%10CCCC%10)c9n8)CC7)c6)CC5)CC4)ccc3C2=O)C(=O)N1 (stereo not drawn) [Compound 36, 3-(5-(4-((1-(3-((4-((8-cyclopentyl-7-oxo-7,8-dihydropyrido[2,3-d]pyrimidin-2-yl)amino)-piperidin-1-yl)sulfonyl)phenyl)piperidin-4-yl)-methyl)piperazin-1-yl)-1-oxoisoindolin-2-yl)-piperidine-2,6-dione]
9 | 736 | 70 | 35 to 90 | CC1(O)CCCC1n1c(=O)ccc2cnc(NC3CCN(S(=O)(=O)c4cccc(CN5CCN(c6ccc7c(c6)CN(C6CCC(=O)NC6=O)C7=O)CC5)c4)CC3)nc21 (stereo not drawn) [Compound 55, 3-(5-(4-(3-((4-((8-(2-hydroxy-2-methyl-cyclopentyl)-7-oxo-7,8-dihydropyrido[2,3-d]-pyrimidin-2-yl)amino)piperidin-1-yl)sulfonyl)-benzyl)piperazin-1-yl)-1-oxoisoindolin-2-yl)-piperidine-2,6-dione]
10 | < 1 | 13.6 | 35 to 90 | CN(CCCN1CCC(c2cccc3c2n(C)c(=O)n3C2CCC(=O)NC2=O)CC1)S(=O)(=O)N1CCC(Nc2ncc3ccc(=O)n(C4CCCC4)c3n2)CC1 (stereo not drawn) [Compound 23, 4-((8-cyclopentyl-7-oxo-7,8-dihydropyrido[2,3-d]pyrimidin-2-yl)amino)-N-(3-(4-(1-(2,6-dioxo-piperidin-3-yl)-3-methyl-2-oxo-2,3-dihydro-1H-benzo[d]imidazol-4-yl)piperidin-1-yl)propyl)-N-methylpiperidine-1-sulfonamide]
11 | 40.2 | 25.8 | 35 to 90 | O=C1CCC(N2Cc3cc(N4CCN(C5CN(c6cccc(S(=O)(=O)N7CCC(Nc8ncc9ccc(=O)n(C%10CCCC%10)c9n8)CC7)c6)C5)CC4)ccc3C2=O)C(=O)N1 (stereo not drawn) [Compound 70, 3-(5-(4-(1-(3-((4-((8-cyclopentyl-7-oxo-7,8-dihydropyrido[2,3-d]pyrimidin-2-yl)amino)-piperidin-1-yl)sulfonyl)phenyl)-azetidin-3-yl)piperazin-1-yl)-1-oxoisoindolin-2-yl)piperidine-2,6-dione]
12 | 46 | 107 | 35 to 90 | O=C1CCC(N2Cc3cc(CN4CCC(Oc5cccc(S(=O)(=O)N6CCC(Nc7ncc8ccc(=O)n(C9CCCC9)c8n7)CC6)c5)CC4)ccc3C2=O)C(=O)N1 (stereo not drawn) [Compound 66, 3-(5-((4-(3-((4-((8-cyclopentyl-7-oxo-7,8-dihydropyrido[2,3-d]pyrimidin-2-yl)amino)-piperidin-1-yl)sulfonyl)phenoxy)-piperidin-1-yl)-methyl)-1-oxoisoindolin-2-yl)piperidine-2,6-dione]
13 | 241 | 67 | 35 to 90 | O=C1CCC(N2Cc3cc(N4CCN(Cc5cccc(S(=O)(=O)N6CCC(Nc7ncc8cc(C(F)F)c(=O)n(C9CCCC9)c8n7)CC6)c5)CC4)ccc3C2=O)C(=O)N1 (stereo not drawn) [Compound 56, 3-(5-(4-(3-((4-((8-cyclopentyl-6-(difluoromethyl)-7-oxo-7,8-dihydropyrido[2,3-d]pyrimidin-2-yl)amino)piperidin-1-yl)sulfonyl)benzyl)piperazin-1-yl)-1-oxoisoindolin-2-yl)piperidine-2,6-dione]

Row | SMILES | IC50 (CDK2 [1]) [nM] | IC50 (CDK2 [2]) [nM] | Dmax (CDK2 [3]) [%]
14 | O=C1CCC(N2Cc3cc(N4CC5CCC(C4)N5Cc4cccc(S(=O)(=O)N5CCC(Nc6ncc7ccc(=O)n(C8CCCC8)c7n6)CC5)c4)ccc3C2=O)C(=O)N1 (stereo not drawn) [Compound 54, 3-(5-(8-(3-((4-((8-cyclopentyl-7-oxo-7,8-dihydro-pyrido[2,3-d]pyrimidin-2-yl)amino)piperidin-1-yl)sulfonyl)benzyl)-3,8-diazabicyclo[3.2.1]octan-3-yl)-1-oxoisoindolin-2-yl)piperidine-2,6-dione] | 214 | 72.5 | 35 to 90
